# Assay results as given in US7271165B2, “Rifamycin analogs and uses thereof” (priority 2003, dated 2007).
# Assays:
# [1] = test system: S. aureus; experiment: MIC assay, S. aureus; type: cell-based, Staphylococcus aureus
# [2] = test system: S. pneumo.; experiment: MIC assay, S. pneumo.; type: cell-based, Streptococcus pneumoniae
# [3] = test system: E. faecalis; experiment: MIC assay, E. faecalis; type: cell-based, Enterococcus faecalis
# [4] = test system: H. flu; type: cell-based, H. influenza; conditions: H. flu
# [5] = test system: E coli; experiment: MIC assay, E coli; type: cell-based
SMILES,MIC (μg/mL) S. aureus [1],MIC (μg/mL) S. pneumo. [2],MIC (μg/mL) E. faecalis [3],MIC (μg/mL) H. flu [4],MIC (μg/mL) E coli [5]
"COC1C=COC2(C)Oc3c(C)c(O)c4c(=O)c(c5sc6cc(N7CC(C)N(CC8CC8)CC7C)ccc6nc-5c4c3C2=O)NC(=O)C(C)=CC=CC(C)C(O)C(C)C(O)C(C)C(OC(C)=O)C1C [Compound 68, 5′-[(2S,5R)-4-(cyclopropylmethyl)-2,5-dimethylpiperazinyl]benzthiazinorifamycin]",0.06 µg/mL,0.0005 µg/mL,2 µg/mL,0.5 µg/mL,>8 µg/mL
"COC1C=COC2(C)Oc3c(C)c(O)c4c(=O)c(c5sc6cc(N7CCC(N(C)C)CC7)ccc6nc-5c4c3C2=O)NC(=O)C(C)=CC=CC(C)C(O)C(C)C(O)C(C)C(OC(C)=O)C1C (stereo not drawn) [Compound 69, 5′-[4-N,N-dimethylamino-1-piperidinyl]benzthiazinorifamycin]",0.015 µg/mL,0.00025 µg/mL,0.5 µg/mL,0.5 µg/mL,4 µg/mL
"COC1C=COC2(C)Oc3c(C)c(O)c4c(=O)c(c5sc6cc(N7CC(C)N(CC8CC8)CC7C)ccc6nc-5c4c3C2=O)NC(=O)C(C)=CC=CC(C)C(O)C(C)C(O)C(C)C(O)C1C [Compound 70, 25-O-deacetyl-5′-[(2S,5R)-4-(cyclopropylmethyl)-2,5-dimethylpiperazinyl]benzthiazinorifamycin]",0.03 µg/mL,0.001 µg/mL,1 µg/mL,1 µg/mL,>8 µg/mL
"COC1C=COC2(C)Oc3c(C)c(O)c4c(=O)c(c5oc6cc(N7CCC(C)(N(C)C)CC7)cc(O)c6nc-5c4c3C2=O)NC(=O)C(C)=CC=CC(C)C(O)C(C)C(O)C(C)C(OC(C)=O)C1C (stereo not drawn) [Compound 71, 3′-hydroxy-5′-[4-methyl-4-N,N-dimethylamino-1-piperidinyl]benzoxazinorifamycin]",0.008 µg/mL,0.00012 µg/mL,0.25 µg/mL,0.5 µg/mL,4 µg/mL
"COC1C=COC2(C)Oc3c(C)c(O)c4c(=O)c(c5oc6cc(N7CCC(C)(NC(C)=O)CC7)cc(O)c6nc-5c4c3C2=O)NC(=O)C(C)=CC=CC(C)C(O)C(C)C(O)C(C)C(OC(C)=O)C1C (stereo not drawn) [Compound 72, 3′-hydroxy-5′-[4-methyl-4-acetylamino-1-piperidinyl]benzoxazinorifamycin]",0.008 µg/mL,0.00025 µg/mL,2 µg/mL,0.5 µg/mL,>8 µg/mL
"COC1C=COC2(C)Oc3c(C)c(O)c4c(=O)c(c5oc6cc(N7CCC(C)(N(C)C)CC7)cc(O)c6nc-5c4c3C2=O)NC(=O)C(C)=CC=CC(C)C(O)C(C)C(O)C(C)C(O)C1C (stereo not drawn) [Compound 73, 25-O-deacetyl-3′-hydroxy-5′-[4-methyl-4-N,N-dimethylamino-1-piperidinyl]benzoxazinorifamycin]",0.002 µg/mL,0.00025 µg/mL,0.03 µg/mL,0.12 µg/mL,2 µg/mL
"COC1C=COC2(C)Oc3c(C)c(O)c4c(=O)c(c5oc6cc(N7CCC(C)(NC(C)=O)CC7)cc(O)c6nc-5c4c3C2=O)NC(=O)C(C)=CC=CC(C)C(O)C(C)C(O)C(C)C(O)C1C (stereo not drawn) [Compound 74, 25-O-deacetyl-3′-hydroxy-5′-[4-methyl-4-acetylamino-1-piperidinyl]benzoxazinorifamycin]",0.03 µg/mL,0.001 µg/mL,0.5 µg/mL,0.12 µg/mL,>8 µg/mL
"COC1C=COC2(C)Oc3c(C)c(O)c4c(=O)c(c5oc6cc(N7CCC(N(C)C)C7)cc(O)c6nc-5c4c3C2=O)NC(=O)C(C)=CC=CC(C)C(O)C(C)C(O)C(C)C(OC(C)=O)C1C [Compound 75, 3′-hydroxy-5′-[(3R)—N,N-dimethylamino-1-pyrrolidinyl]benzoxazinorifamycin]",0.002 µg/mL,0.00012 µg/mL,0.12 µg/mL,0.25 µg/mL,4 µg/mL
"COC1C=COC2(C)Oc3c(C)c(O)c4c(=O)c(c5sc6cc(N7CCN8CCCC8C7)ccc6nc-5c4c3C2=O)NC(=O)C(C)=CC=CC(C)C(O)C(C)C(O)C(C)C(OC(C)=O)C1C [Compound 76, 5′-[(8aS)octahydropyrrolo [1,2-a]pyrazin-2-yl]benzthiazinorifamycin]",0.008 µg/mL,0.00025 µg/mL,0.5 µg/mL,0.25 µg/mL,4 µg/mL
"COC1C=COC2(C)Oc3c(C)c(O)c4c(=O)c(c5sc6cc(N7CCN8CCCC8C7)ccc6nc-5c4c3C2=O)NC(=O)C(C)=CC=CC(C)C(O)C(C)C(O)C(C)C(O)C1C [Compound 77, 25-O-deacetyl-5′-[(8aS)octahydropyrrolo[1,2-a]pyrazin-2-yl]benzthiazinorifamycin]",0.002 µg/mL,0.00025 µg/mL,0.25 µg/mL,0.12 µg/mL,2 µg/mL
COC1C=COC2(C)Oc3c(C)c(O)c4c(=O)c(c5oc6cc(N7CCN(C)CC7)cc(O)c6nc-5c4c3C2=O)NC(=O)C(C)=CC=CC(C)C(O)C(C)C(O)C(C)C(O)C1C (stereo not drawn) [Compound 82],0.002 µg/mL,0.00012 µg/mL,0.015 µg/mL,0.25 µg/mL,4 µg/mL
COC1C=COC2(C)Oc3c(C)c(O)c4c(=O)c(c5oc6cc(N7CCN8CCCC8C7)cc(O)c6nc-5c4c3C2=O)NC(=O)C(C)=CC=CC(C)C(O)C(C)C(O)C(C)C(O)C1C (stereo not drawn) [Compound 83],0.002 µg/mL,0.00025 µg/mL,0.03 µg/mL,0.25 µg/mL,4 µg/mL
COC1C=COC2(C)Oc3c(C)c(O)c4c(=O)c(c5oc6cc(N7CCN8CCCC8C7)cc(O)c6nc-5c4c3C2=O)NC(=O)C(C)=CC=CC(C)C(O)C(C)C(O)C(C)C(O)C1C (stereo not drawn) [Compound 84],0.004 µg/mL,0.00025 µg/mL,0.03 µg/mL,0.25 µg/mL,8 µg/mL
COC1C=COC2(C)Oc3c(C)c(O)c4c(=O)c(c5oc6cc(N7CCN(Cc8ccccc8)CC7)cc(O)c6nc-5c4c3C2=O)NC(=O)C(C)=CC=CC(C)C(O)C(C)C(O)C(C)C(O)C1C (stereo not drawn) [Compound 86],0.03 µg/mL,0.001 µg/mL,>8 µg/mL,8 µg/mL,>8 µg/mL
COC1C=COC2(C)Oc3c(C)c(O)c4c(=O)c(c5oc6cc(N7CC(C)NC(C)C7)cc(O)c6nc-5c4c3C2=O)NC(=O)C(C)=CC=CC(C)C(O)C(C)C(O)C(C)C(O)C1C (stereo not drawn) [Compound 87],0.008 µg/mL,0.0005 µg/mL,0.06 µg/mL,0.25 µg/mL,4 µg/mL
